Holding throughout (format): cell-based
In experiment [1] the test system is HAP1 MTAP-deleted cell line. In words: Viability assay (CellTiter-Glo), HAP1 MTAP-deleted. The settings on record: HAP1 MTAP-deleted cells, 7 days. In a few lines: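 HAP1 MTAP-deleted and MTAP-intact cells seeded, then dosed next day (n=3, 0.2% DMSO) and grown 7 days. Viability by CellTiter-Glo luminescence, expressed as % of DMSO control per cell line.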
Experiment [2] concerns SDMA (PRMT5 activity) in HAP1 MTAP-intact cell line. Briefly: SDMA in-cell western assay, HAP1 MTAP-intact. The settings on record: SDMA in-cell western, HAP1 MTAP-intact cells, 24 hours compound incubation.
Experiment [3] relates to SDMA (PRMT5 activity) in HAP1 MTAP-deleted cell line. Briefly: SDMA in-cell western assay, HAP1 MTAP-deleted. The settings on record: for IC50 / IC90: SDMA in-cell western, HAP1 MTAP-deleted cells, 24 hours compound incubation; for Hap1 MTAP intact/deleted ratio: ratio of SDMA IC50 in HAP1 MTAP-intact to HAP1 MTAP-deleted cell line.

We go through 17 compounds from patent US20250171432A1, “COMPOUNDS AND METHODS OF USE” (Tango Therapeutics, Inc., priority 2022, published 2025).

In the case of `CCc1cc(NC(=O)C(=O)N2C[C@@H](C)CC[C@@H]2c2ccc3cn([C@H]4CCCN(C)C4)nc3c2)cnc1N` [Compound 104], the IC50 in experiment [1] (Homo sapiens, 168 h) is under 100 nM; in experiment [2] (Homo sapiens, HAP1, 24 h), over 50 nM; in experiment [3] (Homo sapiens), under 5 nM. Besides, in experiment [3] (Homo sapiens), the IC90 was under 75 nM. Further, the “Hap1 MTAP intact/deleted ratio” value in experiment [3] was “B (“B” indicates an IC50 ratio greater than or equal to 15 fold but lower than 30 fold)”.

Turning to `CCc1cc(NC(=O)C(=O)N2C[C@@H](C)CC[C@@H]2c2ccc3sc([C@@H]4C[C@@H](C)CN(C)C4)nc3c2)cnc1N` (relative stereo) [Compound 23, N-(6-amino-5-ethylpyridin-3-yl)-2-((2R,5S)-2-(2-(1,5-dimethylpiperidin-3-yl)benzo[d]thiazol-5-yl)-5-methylpiperidin-1-yl)-2-oxoacetamide], the IC50 was under 100 nM in experiment [1] (Homo sapiens, 168 h); 5 to 50 nM in experiment [2] (Homo sapiens, HAP1, 24 h); under 5 nM in experiment [3] (Homo sapiens). Also, the IC90 in experiment [3] (Homo sapiens) is under 75 nM. The “Hap1 MTAP intact/deleted ratio” value in experiment [3] was “B (“B” indicates an IC50 ratio greater than or equal to 15 fold but lower than 30 fold)”.

For `CCc1cc(NC(=O)C(=O)N2C[C@H](C)CC[C@@H]2c2ccc3sc([C@H]4C[C@H](N(C)C)C4)nc3c2)cnc1N` [Compound 119, N-(6-amino-5-ethyl-3-pyridyl)-2-oxo-2-[(2R,5R)-2-[2-[3-(dimethylamino)cyclobutyl]-1,3-benzothiazol-5-yl]-5-methyl-1-piperidyl]acetamide], the IC50 in experiment [1] (Homo sapiens, 168 h) was over 1000 nM; in experiment [2] (Homo sapiens, HAP1, 24 h), over 50 nM; in experiment [3] (Homo sapiens) it was over 50 nM. Moreover, in experiment [3] (Homo sapiens), the 90% effect concentration (IC90) was over 125 nM. Further, in experiment [3], the “Hap1 MTAP intact/deleted ratio” value is recorded as “C (“C” indicates an IC50 ratio of less than 15 fold)”.

As for `CCc1cc(NC(=O)C(=O)N2C[C@@H](C)CC[C@@H]2c2ccc3cn(CCN(C)C)nc3c2)cnc1N` [Compound 38, N-(6-amino-5-ethyl-3-pyridyl)-2-oxo-2-[(2R,5S)-2-[2-[2-(dimethylamino)ethyl]indazol-6-yl]-5-methyl-1-piperidyl]acetamide], the IC50 was under 100 nM in experiment [1] (Homo sapiens, 168 h); over 50 nM in experiment [2] (Homo sapiens, HAP1, 24 h); under 5 nM in experiment [3] (Homo sapiens). The compound also showed an IC90 in experiment [3] (Homo sapiens) of under 75 nM. Also, the “Hap1 MTAP intact/deleted ratio” value in experiment [3] is listed as “B (“B” indicates an IC50 ratio greater than or equal to 15 fold but lower than 30 fold)”.

For the compound `C[C@H]1CC[C@H](c2ccc3sc(C4CCN(C)C(C)(C)C4)nc3c2)N(C(=O)C(=O)Nc2cnc(N)c(C3COC3)c2)C1` (single isomer, unassigned) [Compound 1], in experiment [1], the 50% inhibitory concentration (IC50) was under 100 nM. This compound returned an IC50 in experiment [2] of 5 to 50 nM. In experiment [3], the IC50 is under 5 nM, the IC90 was under 75 nM and the “Hap1 MTAP intact/deleted ratio” value is recorded as “C (“C” indicates an IC50 ratio of less than 15 fold)”.

Consider `CCc1cc(NC(=O)C(=O)N2C[C@@H](C)CC[C@@H]2c2ccc3sc([C@@H]4CN(C)C[C@H]4C)nc3c2)cnc1N` (mixture of isomers) [Compound 10, N-(6-amino-5-ethylpyridin-3-yl)-2-((2R,5S)-2-(2-(rac-(3S,4S)-1,4-dimethylpyrrolidin-3-yl)benzo[d]thiazol-5-yl)-5-methylpiperidin-1-yl)-2-oxoacetamide], for which the IC50 in experiment [1] (Homo sapiens, 168 h) is under 100 nM; in experiment [2] (Homo sapiens, HAP1, 24 h) it was over 50 nM; in experiment [3] (Homo sapiens), under 5 nM. For the same compound, the IC90 in experiment [3] (Homo sapiens) was under 75 nM. Besides, the “Hap1 MTAP intact/deleted ratio” value in experiment [3] is “A (“A” indicates an IC50 ratio greater than or equal to 30 fold)”.

As for `CCc1cc(NC(=O)C(=O)N2C[C@@H](C)CC[C@@H]2c2ccc3sc([C@@H]4C[C@@H](C)CN(C)C4)nc3c2)cnc1N` (racemic) [Compound 118, N-(6-amino-5-ethylpyridin-3-yl)-2-((2R,5S)-2-(2-(1,5-dimethylpiperidin-3-yl)benzo[d]thiazol-5-yl)-5-methylpiperidin-1-yl)-2-oxoacetamide], the IC50 was under 100 nM in experiment [1] (Homo sapiens, 168 h); 5 to 50 nM in experiment [2] (Homo sapiens, HAP1, 24 h); under 5 nM in experiment [3] (Homo sapiens). Further, in experiment [3] (Homo sapiens), the IC90 is under 75 nM. In addition, in experiment [3], the “Hap1 MTAP intact/deleted ratio” value is “C (“C” indicates an IC50 ratio of less than 15 fold)”.

Regarding `CCc1cc(NC(=O)C(=O)N2C[C@@H](C)CC[C@@H]2c2ccc3cn([C@H]4CCOC4)nc3c2)cnc1N` (racemic) [Compound 93, N-(6-amino-5-ethyl-3-pyridyl)-2-oxo-2-[rac-(2R,5S)-5-methyl-2-(2-tetrahydrofuran-3-ylindazol-6-yl)-1-piperidyl]acetamide], the 50% inhibitory concentration (IC50) in experiment [1] (Homo sapiens, 168 h) was under 100 nM; in experiment [2] (Homo sapiens, HAP1, 24 h), over 50 nM; in experiment [3] (Homo sapiens) it was 5 to 50 nM. Also, the IC90 in experiment [3] (Homo sapiens) was under 75 nM. For the same compound, in experiment [3], the “Hap1 MTAP intact/deleted ratio” value is on record as “A (“A” indicates an IC50 ratio greater than or equal to 30 fold)”.

Turning to `COc1ncc(NC(=O)C(=O)N2C[C@@H](C)CC[C@@H]2c2ccc3sc([C@@H]4CCN(C)C[C@@H]4C)nc3c2)cc1C(N)=O` (relative stereo) [Compound 12, 2-methoxy-5-[[2-oxo-2-[(2R,5S)-5-methyl-2-[2-[rel-(3R,4R)-1,3-dimethyl-4-piperidyl]-1,3-benzothiazol-5-yl]-1-piperidyl]acetyl]amino]pyridine-3-carboxamide], the 50% inhibitory concentration (IC50) is under 100 nM in experiment [1] (Homo sapiens, 168 h); over 50 nM in experiment [2] (Homo sapiens, HAP1, 24 h); under 5 nM in experiment [3] (Homo sapiens). Further, the IC90 in experiment [3] (Homo sapiens) is under 75 nM. Moreover, the “Hap1 MTAP intact/deleted ratio” value in experiment [3] is reported as “A (“A” indicates an IC50 ratio greater than or equal to 30 fold)”.

As to `CCc1cc(NC(=O)C(=O)N2CCCC[C@@H]2c2ccc3sc(C4CCN(C)CC4)nc3c2)cnc1N` [Compound 73, N-(6-amino-5-ethylpyridin-3-yl)-2-(2-(2-(1-methylpiperidin-4-yl)benzo[d]thiazol-5-yl)piperidin-1-yl)-2-oxoacetamide], the IC50 in experiment [1] (Homo sapiens, 168 h) is 100 to 1000 nM; in experiment [2] (Homo sapiens, HAP1, 24 h) it was over 50 nM; in experiment [3] (Homo sapiens) it was 5 to 50 nM. In experiment [3] (Homo sapiens), this compound returned an IC90 of 75 to 125 nM. Also, the “Hap1 MTAP intact/deleted ratio” value in experiment [3] is listed as “A (“A” indicates an IC50 ratio greater than or equal to 30 fold)”.

Turning to `Cc1cc2[nH]c(C(=O)N3C[C@@H](C)CC[C@@H]3c3ccc4sc(C5CCN(C)CC5)nc4c3)cc2nc1N` [Compound 110, (5-amino-6-methyl-1H-pyrrolo[3,2-b]pyridin-2-yl)((2R,5S)-5-methyl-2-(2-(1-methylpiperidin-4-yl)benzo[d]thiazol-5-yl)piperidin-1-yl)methanone], the IC50 is under 100 nM in experiment [1] (Homo sapiens, 168 h); over 50 nM in experiment [2] (Homo sapiens, HAP1, 24 h); under 5 nM in experiment [3] (Homo sapiens). In experiment [3] (Homo sapiens), this compound returned a 90% effect concentration (IC90) of under 75 nM. The “Hap1 MTAP intact/deleted ratio” value in experiment [3] is “A (“A” indicates an IC50 ratio greater than or equal to 30 fold)”.

With `COc1ncc(NC(=O)C(=O)N2C[C@@H](C)CC[C@@H]2c2cccc(OC[C@H](C)N(C)C)c2)cc1C(N)=O` [Compound 37, 5-(2-((2R,5S)-2-(3-((S)-2-(dimethylamino)propoxy)phenyl)-5-methylpiperidin-1-yl)-2-oxoacetamido)-2-methoxynicotinamide], the IC50 in experiment [1] (Homo sapiens, 168 h) was under 100 nM; in experiment [2] (Homo sapiens, HAP1, 24 h), over 50 nM; in experiment [3] (Homo sapiens), 5 to 50 nM. Besides, the concentration for an effect of 90% (IC90) in experiment [3] (Homo sapiens) was 75 to 125 nM. In experiment [3], the “Hap1 MTAP intact/deleted ratio” value is reported as “A (“A” indicates an IC50 ratio greater than or equal to 30 fold)”.

For `COc1ncc(NC(=O)C(=O)N2C[C@@H](C)CC[C@@H]2c2ccc3sc([C@@H]4C[C@@H](C)CN(C)C4)nc3c2)cc1C(N)=O` (racemic) [Compound 94, 5-(2-((2R,5S)-2-(2-(1,5-dimethylpiperidin-3-yl)benzo[d]thiazol-5-yl)-5-methylpiperidin-1-yl)-2-oxoacetamido)-2-methoxynicotinamide], the IC50 was under 100 nM in experiment [1] (Homo sapiens, 168 h); over 50 nM in experiment [2] (Homo sapiens, HAP1, 24 h); under 5 nM in experiment [3] (Homo sapiens). The compound further gave an IC90 in experiment [3] (Homo sapiens) of under 75 nM. Moreover, the “Hap1 MTAP intact/deleted ratio” value in experiment [3] was “A (“A” indicates an IC50 ratio greater than or equal to 30 fold)”.

With `CCc1cc(NC(=O)C(=O)N2C[C@@H](C)CC[C@@H]2c2ccc3sc([C@@H]4C[C@@H]5CN(C)C[C@@H]5C4)nc3c2)cnc1N` (single isomer, unassigned) [Compound 111], the concentration for half-maximal inhibition (IC50) is under 100 nM in experiment [1] (Homo sapiens, 168 h); over 50 nM in experiment [2] (Homo sapiens, HAP1, 24 h); under 5 nM in experiment [3] (Homo sapiens). In experiment [3] (Homo sapiens), this compound returned an IC90 of under 75 nM. Further, the “Hap1 MTAP intact/deleted ratio” value in experiment [3] is recorded as “B (“B” indicates an IC50 ratio greater than or equal to 15 fold but lower than 30 fold)”.

For the compound `CCc1cc(NC(=O)C(=O)N2C[C@@H](C)CC[C@@H]2c2ccc3cn(C4CN(C)CC(C)(C)C4)nc3c2)cnc1N` (single isomer, unassigned) [Compound 78], the IC50 in experiment [1] (Homo sapiens, 168 h) is under 100 nM; in experiment [2] it was over 50 nM; in experiment [3] (Homo sapiens), under 5 nM. This compound also returned a concentration for an effect of 90% (IC90) in experiment [3] (Homo sapiens) of under 75 nM. The “Hap1 MTAP intact/deleted ratio” value in experiment [3] is “B (“B” indicates an IC50 ratio greater than or equal to 15 fold but lower than 30 fold)”.

For `COc1ncc(NC(=O)C(=O)N2C[C@@H](C)CC[C@@H]2c2ccc3sc([C@H]4CN(C)C(C)(C)C4)nc3c2)cc1C(N)=O` [Compound 65, 2-methoxy-5-[[2-oxo-2-[(2R,5S)-5-methyl-2-[2-[(3R)-1,5,5-trimethylpyrrolidin-3-yl]-1,3-benzothiazol-5-yl]-1-piperidyl]acetyl]amino]pyridine-3-carboxamide], the IC50 in experiment [1] (Homo sapiens, 168 h) was under 100 nM; in experiment [2] (Homo sapiens, HAP1, 24 h), over 50 nM; in experiment [3] (Homo sapiens), under 5 nM. The same compound displayed an IC90 in experiment [3] (Homo sapiens) of under 75 nM. Further, the “Hap1 MTAP intact/deleted ratio” value in experiment [3] is given as “B (“B” indicates an IC50 ratio greater than or equal to 15 fold but lower than 30 fold)”.

On to `CCc1cc(NC(=O)C(=O)N2C[C@@H](C)CC[C@@H]2c2ccc3sc([C@H]4CCN(C)C[C@@H]4OC)nc3c2)cnc1N` (single isomer, unassigned) [Compound 90], for which the IC50 was under 100 nM in experiment [1] (Homo sapiens, 168 h); over 50 nM in experiment [2] (Homo sapiens, HAP1, 24 h); under 5 nM in experiment [3] (Homo sapiens). The compound further displayed an IC90 in experiment [3] (Homo sapiens) of under 75 nM. Moreover, in experiment [3], the “Hap1 MTAP intact/deleted ratio” value is reported as “A (“A” indicates an IC50 ratio greater than or equal to 30 fold)”.

One may read the IC50 as the midpoint of a concentration-inhibition curve. Read a low IC50 as greater potency in that assay. Usually IC90 stands for the concentration at which the effect reaches the 90% level. Read a high IC90 as a need for much substance.
